In patent US20240317777A1, “NOVEL MACROCYCLIC AMINOPYRAZOLE COMPOUNDS AS CDK2 INHIBITORS” (Accutar Biotechnology Inc., priority 2023, published 2024):
Where two headings read alike, the source gives them in different places.

Key:
[1] = the molecule shown is the open-chain precursor, other bond, 18-membered ring, DIEA, THF
[2] = the molecule shown is the open-chain precursor; other bond; 18-membered ring; DIEA; THF; 1.83 mM; 80.0 °C

SMILES: CC(C)(C)n1nc([C@H]2CC[C@@H](OC(=O)Oc3ccc([N+](=O)[O-])cc3)C2)cc1Nc1ccnc(OCC2CC(N)C2)c1 (stereo partly shown)
- ring closure, crude yield ([1]; 1.21 mM, 70.0 °C): 96.7%

SMILES: CC(OCCCN)c1cc(Nc2cc([C@H]3CC[C@@H](OC(=O)Oc4ccc([N+](=O)[O-])cc4)C3)nn2C(C)(C)C)ccn1 (stereo partly shown)
- ring closure, crude yield ([1]; 6.34 mM, 100.0 °C): 87.5%

SMILES: C[C@H](N)CC(F)(F)COc1cc(Nc2cc([C@H]3CC[C@@H](OC(=O)Oc4ccc([N+](=O)[O-])cc4)C3)nn2C(C)(C)C)ccn1
- ring closure, yield after HPLC [2]: 66.2%

SMILES: C[C@H](N)CCCCc1cc(Nc2cc([C@H]3CC[C@@H](OC(=O)Oc4ccc([N+](=O)[O-])cc4)C3)nn2C(C)(C)C)ccn1
- ring closure, crude yield ([1]; 0.92 mM, 20.0 °C): 91.9%

SMILES: C[C@H](N)CCCOc1cc(Nc2cc([C@H]3CC[C@@H](OC(=O)Oc4ccc([N+](=O)[O-])cc4)C3)nn2C(C)(C)C)c(F)cn1
- ring closure, crude yield ([1]; 1.71 mM, 25.0 °C): 99.9%

SMILES: C[C@H](N)CCCOc1cc(Nc2cc([C@H]3CC[C@@H](OC(=O)Oc4ccc([N+](=O)[O-])cc4)C3)nn2C(C)(C)C)cc(F)n1
- ring closure, crude yield ([1]; 1.71 mM, 25.0 °C): 97.8%

SMILES: C[C@H](N)CCO[C@@H](C)c1cc(Nc2cc([C@H]3CC[C@@H](OC(=O)Oc4ccc([N+](=O)[O-])cc4)C3)nn2C(C)(C)C)ccn1
- ring closure, crude yield ([1]; 0.55 mM, 25.0 °C): 86.5%
